Test results reported in patent US20240076297A1, “ADENOSINE A2A AND A2B RECEPTOR DUAL ANTAGONISTS FOR IMMUNO-ONCOLOGY” (Merck Sharp & Dohme LLC, priority 2020, published 2024).

Experiments:
[1] = molecular target: T1, human A2A adenosine receptor (Homo sapiens (Human), UniProt P29274); test: A2A binding affinity using SPA, Method (B); settings: [3H] SCH58261, A2A receptor-expressing membranes
Source text: (§1) Method (A) describes the procedure used to measure A2A binding affinity using radioligand binding. Method (B) describes the procedure used to measure A2A binding affinity using SPA technology. The method used to measure A2B binding affinity is also described below. The method used to determine the A2A IC50 value reported for each compound in the table is indicated next to the reported value. The A2B IC50 value measured using the A2B binding affinity assay is shown in the table next to the compound under the corresponding A2A value.
The A2A receptor affinity binding assay measured the amount of binding of a tritiated ligand with high affinity for the A2A adenosine receptor to membranes made from HEK293 or CHO cells recombinantly expressing the human A2A adenosine receptor, in the presence of varying concentrations of a compound of the invention. The data were generated using either filtration binding or a homogenous scintillation proximity assay (SPA).
Method (B): Measurement of A2A Binding Affinity Using SPA
Binding affinity using SPA was conducted as follows. Test compounds (50 nL) were dispensed into individual wells of a 384-well OptiPlate™ well (Perkin Elmer) by Echo® acoustic liquid transfer (Labcyte). 20 μL of 1.25 nM [^3H] SCH58261 ((7-(2-phenylethyl)-5-amino-2-(2-furyl)-pyrazolo-[4,3-e]-1,2,4-triazolo[1,5-c]pyrimidine)) in DPBS assay buffer (Dulbecco's phosphate buffered saline without calcium and magnesium, ThermoFisher Scientific, Cat. No. A1285601) supplemented with 10 mM MgCl2 was added. A2A receptor-expressing membranes were incubated with 20 μg/mL adenosine deaminase (Roche, Cat. No. 10 102 105 001) for 15 min at room temperature. The receptor-expressing membranes were then combined with wheat germ agglutinin-coated yttrium silicate SPA beads (GE Healthcare, Cat. No. RPNQ0023) in a ratio of 1:1000 (w/w) and incubated for 30 min at room temperature. 30 μL of the membrane/bead mixture (0.25 μg and 25 μg per well respectively) were added to the 384-well OptiPlate™ well. To define total and non-specific binding, wells containing 1% DMSO or 1 μM CGS15943 (Tocris Bioscience, Cat. No. 1699) respectively were also included in the experiment. The plate was incubated for 1 h at room temperature with agitation. The assay plate was then incubated for an h to allow the beads to settle before data were collected using a TopCount® (Perkin Elmer) scintillation counter. After normalization to total and non-specific binding, the percent effect at each compound concentration was calculated. The plot of percent effect versus the log of compound concentration was analyzed electronically using a 4-parameter logistic fit based on the Levenberg-Marquardt algorithm to generate IC50 values.

[2] = molecular target: T1, human A2A adenosine receptor; test: A2A binding affinity using radioligand binding, Method (A); settings: Method (A): filtration radioligand binding, [3H] SCH58261, membranes expressing human A2A
How it was run: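 Filtration binding used HEK293 or CHO membranes (5 μg/mL) preincubated with compound for 15–30 min at RT. [3H]SCH58261 (4 nM working solution) was added in Tris pH 7.4/10 mM MgCl2/0.005% Tween20 for 60 min at RT, with 1 μM ZM241385 defining nonspecific binding. Scintillation counts gave IC50 via 4-parameter logistic fit.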

[3] = molecular target: human A2B adenosine receptor (Homo sapiens (Human), UniProt P29275); test: A2B binding affinity, radioligand filtration binding assay; settings: HEK293 membranes expressing human A2B, tritiated proprietary antagonist
Source text: as §1
Measurement of A2B Binding Affinity
The reported affinity of the compounds of the invention for the human A2B adenosine receptor was determined experimentally using a radioligand filtration binding assay. This assay measures the amount of binding of a tritiated proprietary A2B receptor antagonist, in the presence and absence of a compound of the invention, to membranes made from HEK293 cells recombinantly expressing the human A2B adenosine receptor (Perkin Elmer, Cat. No. ES-013-C).
148 μL (135 μg/mL) membranes and 2 μL test compounds were transferred to individual wells of a 96-well polypropylene assay plate and incubated for 15 to 30 min at room temperature with agitation. Tritiated radioligand was diluted to a concentration of 14 nM in assay buffer (phosphate buffered saline without Magnesium and Calcium, pH 7.4; GE Healthcare Life Sciences, Cat. No. SH30256.01) and then 50 μL of the solution were transferred to each well of the assay plate. To define total and non-specific binding, wells containing 1% DMSO and 20 μM N-ethylcarboxamidoadenosine (Tocris Bioscience, Cat. No. 1691) respectively, were also included. The wells of the assay plate were incubated at room temperature for 60 min with agitation, then filtered using a FilterMate Harvester® (Perkin Elmer) or similar equipment through a UniFilter-96@ PEI coated plate (Perkin Elmer Cat. No. 6005274 or 6005277). Filtering was achieved by aspirating the contents of the assay plate for 5 sec, then washing and aspirating the contents three times with ice-cooled wash buffer (assay buffer supplemented with 0.0025% Brij58) and allowing the vacuum manifold to dry the plate for 30 sec. The filter plate was incubated for at least 1 h at 55° C. and allowed to dry. The bottom of the filter plate was then sealed with backing tape. 40 μL Ultima Gold™ (Perkin Elmer, Cat. No. 6013329) was added to each well of the filter plate and the top of the plate was sealed with TopSeal-A PLUS® clear plate seal (Perkin Elmer, Cat. No. 6050185). The plates were then incubated for at least 20 min, and then the amount of radioactivity remaining in each well was determined using a TopCount® (Perkin Elmer) scintillation counter. After normalization to total and non-specific binding, the percent effect at each compound concentration was calculated. The plot of percent effect versus the log of compound concentration was analyzed electronically using a 4-parameter logistic fit based on the Levenberg-Marquardt algorithm to generate IC50 values.

human A2B adenosine receptor, sequence (P29275 whole entry): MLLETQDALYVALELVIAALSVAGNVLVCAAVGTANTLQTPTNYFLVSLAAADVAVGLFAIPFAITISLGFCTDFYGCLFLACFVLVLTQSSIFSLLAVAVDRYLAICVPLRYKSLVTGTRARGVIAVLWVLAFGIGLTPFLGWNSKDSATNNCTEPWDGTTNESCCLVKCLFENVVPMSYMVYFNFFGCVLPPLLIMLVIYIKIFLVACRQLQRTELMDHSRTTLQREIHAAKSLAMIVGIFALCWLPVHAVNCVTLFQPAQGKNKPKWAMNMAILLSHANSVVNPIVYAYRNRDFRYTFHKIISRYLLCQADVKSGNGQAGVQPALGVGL
T1 sequence (P29274 whole entry): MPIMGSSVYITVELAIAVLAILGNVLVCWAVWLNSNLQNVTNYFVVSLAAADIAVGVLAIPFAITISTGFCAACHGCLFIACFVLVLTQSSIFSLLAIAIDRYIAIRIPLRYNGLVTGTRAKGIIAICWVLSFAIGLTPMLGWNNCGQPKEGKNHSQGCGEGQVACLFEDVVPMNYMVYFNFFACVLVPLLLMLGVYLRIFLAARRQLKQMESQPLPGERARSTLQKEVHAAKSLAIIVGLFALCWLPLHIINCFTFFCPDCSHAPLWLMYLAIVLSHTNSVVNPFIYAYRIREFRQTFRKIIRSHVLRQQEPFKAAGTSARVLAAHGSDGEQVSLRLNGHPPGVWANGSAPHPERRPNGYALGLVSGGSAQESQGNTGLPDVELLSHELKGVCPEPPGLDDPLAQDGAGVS

IC50 [1] [nM] | IC50 [2] [nM] | IC50 ([3]; value given with marker (A)) [nM] | IC50 ([3]; value given with marker (B)) [nM] | SMILES
15.5 |  |  |  | COc1cccc2c1nc(N)n1nc(CCCCl)nc21 [Example 1.1, 2-(3-chloropropyl)-7-methoxy-[1,2,4]triazolo[1,5-c]quinazolin-5-amine]
8.4 |  |  |  | COc1cccc2c1nc(N)n1nc(CCCSc3ccc(C(F)(F)F)cc3)nc21 [Example 1.2, 7-methoxy-2-(3-((4-(trifluoromethyl)phenyl)thio)propyl)-[1,2,4]triazolo[1,5-c]quinazolin-5-amine]
7.3 |  |  |  | COc1cccc2c1nc(N)n1nc(CSCc3ccc(F)cc3)nc21 [Example 1.3, 2-(((4-fluorobenzyl)thio)methyl)-7-methoxy-[1,2,4]triazolo[1,5-c]quinazolin-5-amine]
8.7 |  |  |  | CCOCc1nc2c3cccc(OC)c3nc(N)n2n1 [Example 4.2, 2-(ethoxymethyl)-7-methoxy-[1,2,4]triazolo[1,5-c]quinazolin-5-amine]
2.7 |  |  |  | COc1cccc2c1nc(N)n1nc(COCc3ccsc3)nc21 [Example 4.3, 7-methoxy-2-((thiophen-3-ylmethoxy)methyl)-[1,2,4]triazolo[1,5-c]quinazolin-5-amine]
4.7 |  |  |  | COc1cccc2c1nc(N)n1nc(COCc3ccc(F)cc3)nc21 [Example 4.4, 2-(((4-fluorobenzyl)oxy)methyl)-7-methoxy-[1,2,4]triazolo[1,5-c]quinazolin-5-amine]
8.7 |  |  |  | COc1cccc2c1nc(N)n1nc(COCc3c(C)ccnc3C)nc21 [Example 4.5, 2-(((2,4-dimethylpyridin-3-yl)methoxy)methyl)-7-methoxy-[1,2,4]triazolo[1,5-c]quinazolin-5-amine]
8.3 |  |  |  | COc1cccc2c1nc(N)n1nc(CO[C@H](C)c3ccc(F)cc3)nc21 [Example 4.6, (R)-2-((1-(4-fluorophenyl)ethoxy)methyl)-7-methoxy-[1,2,4]triazolo[1,5-c]quinazolin-5-amine]
4.6 |  |  |  | COc1cccc2c1nc(N)n1nc(CO[C@@H](C)c3ccc(F)cc3)nc21 [Example 4.7, (S)-2-((1-(4-fluorophenyl)ethoxy)methyl)-7-methoxy-[1,2,4]triazolo[1,5-c]quinazolin-5-amine]
2.9 |  |  |  | COc1cccc2c1nc(N)n1nc(COCc3csc4ccccc34)nc21 [Example 4.8, 2-((benzo[b]thiophen-3-ylmethoxy)methyl)-7-methoxy-[1,2,4]triazolo[1,5-c]quinazolin-5-amine]
 | 0.8 | 9.8 |  | COc1cc(F)cc2c1nc(N)n1nc(CCS(=O)(=O)C3CC3)nc21 [Example 13.10, 2-(2-(cyclopropylsulfonyl)ethyl)-9-fluoro-7-methoxy-[1,2,4]triazolo[1,5-c]quinazolin-5-amine]
 | 28.8 | 666 |  | COc1cc(F)cc2c1nc(N)n1nc(CCS(=O)(=O)CC(C)C)nc21 [Example 13.11, 9-fluoro-2-(2-(isobutylsulfonyl)ethyl)-7-methoxy-[1,2,4]triazolo[1,5-c]quinazolin-5-amine]
 | 165 | 1720 |  | CCS(=O)(=O)CCc1nc2c3cc(F)c(OC)cc3nc(N)n2n1 [Example 13.12, 2-(2-(ethylsulfonyl)ethyl)-9-fluoro-8-methoxy-[1,2,4]triazolo[1,5-c]quinazolin-5-amine]
 | 57.7 | 1040 |  | COc1cc2nc(N)n3nc(CCS(=O)(=O)c4ccc(F)cc4)nc3c2cc1F [Example 13.13, 9-fluoro-2-(2-((4-fluorophenyl)sulfonyl)ethyl)-8-methoxy-[1,2,4]triazolo[1,5-c]quinazolin-5-amine]
 | 9.1 | 197 |  | COc1cc2nc(N)n3nc(CCS(=O)(=O)C4CC4)nc3c2cc1F [Example 13.14, 2-(2-(cyclopropylsulfonyl)ethyl)-9-fluoro-8-methoxy-[1,2,4]triazolo[1,5-c]quinazolin-5-amine]
 | 9.8 | 220 |  | CCS(=O)(=O)CCc1nc2c3cc(F)cc(OC)c3nc(N)n2n1 [Example 13.15, 2-(2-(ethylsulfonyl)ethyl)-9-fluoro-7-methoxy-[1,2,4]triazolo[1,5-c]quinazolin-5-amine]
 | 107 | 1080 |  | COc1cc2nc(N)n3nc(CCS(=O)(=O)CC(C)C)nc3c2cc1F [Example 13.16, 9-fluoro-2-(2-(isobutylsulfonyl)ethyl)-8-methoxy-[1,2,4]triazolo[1,5-c]quinazolin-5-amine]
 | 28.1 | 410 |  | COc1cccc2c1nc(N)n1nc(CCS(C)(=O)=O)nc21 [Example 13.17, 7-methoxy-2-(2-(methylsulfonyl)ethyl)-[1,2,4]triazolo[1,5-c]quinazolin-5-amine]
 | 1.1 | 112 |  | COc1cc(F)cc2c1nc(N)n1nc(CCCS(=O)(=O)C3CC3)nc21 [Example 13.18, 2-(3-(cyclopropylsulfonyl)propyl)-9-fluoro-7-methoxy-[1,2,4]triazolo[1,5-c]quinazolin-5-amine]
 | 13.9 |  | 307 | CC[C@@H](O)Cc1nc2c3cccc(OC)c3nc(N)n2n1 [Example 17.2, (R)-1-(5-amino-7-methoxy-[1,2,4]triazolo[1,5-c]quinazolin-2-yl)butan-2-ol]
 | 264 |  | 2990 | COc1cccc2c1nc(N)n1nc([C@@H](C)CO)nc21 [Example 17.3, (R)-2-(5-amino-7-methoxy-[1,2,4]triazolo[1,5-c]quinazolin-2-yl)propan-1-ol]
 | 145 |  | 1070 | COc1cccc2c1nc(N)n1nc([C@H](C)CO)nc21 [Example 17.4, (S)-2-(5-amino-7-methoxy-[1,2,4]triazolo[1,5-c]quinazolin-2-yl)propan-1-ol]
 | 30.8 |  | 128 | COc1cccc2c1nc(N)n1nc(CC(C)(C)O)nc21 [Example 18.2, 1-(5-amino-7-methoxy-[1,2,4]triazolo[1,5-c]quinazolin-2-yl)-2-methylpropan-2-ol]
 | 6.7 |  | 214 | COc1cccc2c1nc(N)n1nc(C[C@H](C)O)nc21 [Example 18.3, (S)-1-(5-amino-7-methoxy-[1,2,4]triazolo[1,5-c]quinazolin-2-yl)propan-2-ol]
 | 15.1 |  | 209 | COc1cccc2c1nc(N)n1nc(C[C@@H](C)O)nc21 [Example 18.4, (R)-1-(5-amino-7-methoxy-[1,2,4]triazolo[1,5-c]quinazolin-2-yl)propan-2-ol]
